Experimental data published in patent US20090197957A1, “Methods and compositions for the treatment of pain” (Nuon Therapeutics, Inc., priority 2005, published 2009).

Tests used:
T-cells = assay: Cytokine production by stimulated T cells in vitro (ELISA); type: cell-based; settings: anti-CD3/anti-CD28 stimulation, graded concentrations
Protocol: (§1) FIG. 7 is a graphical representation depicting that 3,4-DAA and 3-HAA inhibit B and T cell proliferation in vitro. Purified B and T cells were stimulated for 72 h with anti-CD40 (a), or anti-CD3/anti-CD28 (b) respectively, in the presence of varying doses of 3,4-DAA, or 3-HAA.
(§2) A single cell suspension was prepared by pushing splenic tissue through a cell strainer, and erythrocytes were lysed using an ammonium chloride solution (Sigma, St Louis, Mo.). B cells were positively enriched by using anti-IgM microbeads (BD Pharmingen), and T cells were positively enriched using anti-CD4 MACS microbeads, according to the manufacturer's guidelines (Miltenyi Biotec, Bergisch Gladbach, Germany). Purity was assessed by flow cytometric analysis (B cell>90% CD19+, T cell>90% CD4+). Cells were cultured at 5×10^5 cells/ml in 200 μl complete RPMI, as above, in a flat bottom 96-well plate and cultured for 72 h. B cells were stimulated with anti-CD40 monoclonal antibody (10 μg/ml; BD), and T cells were stimulated with 5 μg/ml plate-bound anti-CD3 (ebiosciences) plus 5 μg/ml soluble anti-CD28 (ebiosciences). 3,4-DAA, 3-HAA, or vehicle (DMSO) was added at graded concentrations immediately prior to stimulation. 48 hours after stimulation, 100 μl culture medium was collected, and cells were pulsed with 1 μCi ^3H thymidine per well for 18 h. Cells were then harvested and plates assessed for thymidine incorporation. Each assay was performed on a minimum of 3 occasions. IFN-γ, IL-10 and IL-5 levels were assessed in the culture medium by ELISA, as above.
(§3) Activation of purified B (FIG. 7a) and T cells (FIG. 7b) was induced by anti-CD40, and anti-CD3/CD28 respectively, and proliferation was assessed by ^3H-thymidine incorporation. […] Inhibition of proliferation was also observed when B cells were stimulated with LPS or anti-IgM. […] It was concluded that the effects of 3,4-DAA and 3-HAA on T and B cells in vitro were remarkably similar, though not identical. It is of also note that 3-HAA had no action on inflammation or allodynia, when administered therapeutically in CIA at doses of up to 400 mg/kg/day.

established CIA = assay: Treatment of established collagen-induced arthritis (clinical score, paw swelling, histology, relapse); type: in vivo, DBA/1 mice
Protocol: FIG. 2 is a graphical representation of the treatment of established CIA with 3,4-DAA. DBA/1 mice were immunised with type II collagen in CFA and monitored for development of arthritis. On day 1 of arthritis, mice were injected intraperitoneally with 3,4-DAA on a daily basis. Paw thickness was measured with callipers. The clinical scoring system was as follows: 0=normal, 1=slight swelling and/or erythema, and 2=pronounced oedematous swelling. Each limb was graded, giving a maximum score of 8 per mouse. Histological assessment of arthritis was carried out on haematoxylin and eosin stained sections using a scoring system as follows: 0, normal; 1, minimal synovitis without cartilage/bone erosion; 2, synovitis with some marginal erosion but joint architecture maintained; 3, severe synovitis and erosion with loss of normal joint architecture. There were 14 mice/group (data pooled from two separate experiments).
FIG. 5 is a graphical representation of the relapse of arthritis 4 days after cessation of therapy. Mice with established CIA (n=6) were treated with 3,4-DAA (400 mg/kg/day) from days 1 to 5 of arthritis and clinical severity of arthritis was monitored up to day 12. Arthritis is seen to relapse at around day 9.
Type II collagen was purified from bovine cartilage, as described [Williams 2004, Methods Mol. Med. 98:207-216] and solubilized by stirring overnight at 4° C. in acetic acid (0.1M) or Tris buffer (0.05 M Tris, containing 0.2 M NaCl, pH 7.4). 3,4-DAA was synthesised by Angiogen Pharmaceuticals Pty. Ltd. For in vivo studies 3,4-DAA was dissolved at a maximum concentration of 10 mg/ml in 1% sodium bicarbonate by heating for 1 h at 70° C. Upon cooling, an emulsion was formed. For in vitro studies 3,4-DAA was dissolved in dimethyl sulphoxide (DMSO). 3-Hydroxy-anthranilic acid (3-HAA) was purchased from Sigma (Poole, UK) and dissolved in PBS.
Male DBA/1 mice (8-12 weeks old) were immunized intradermally at the base of the tail with bovine type II collagen (200 μg) emulsified in complete Freund's adjuvant (CFA; Difco, West Molesley, UK). Arthritis was monitored clinically using the following scoring system: 0=normal, 1=slight swelling and/or erythema, and 2=pronounced oedematous swelling. Each limb was graded, giving a maximum score of 8 per mouse. In addition, paw-swelling was measured using callipers.
Histopathological assessment of arthritis was carried out in a ‘blinded’ fashion on decalcified haematoxylin and eosin stained sections using a scoring system as follows: 0, normal; 1, minimal synovitis without cartilage/bone erosion; 2, synovitis with some marginal erosion but joint architecture maintained; 3, severe synovitis and erosion with loss of normal joint architecture. This research was approved by the local ethical review process committee and by the Home Office of Great Britain.
The ability of 3,4-DAA to treat established CIA was tested. Mice were immunised with type II collagen in CFA. On day 1 of clinical arthritis (the day that arthritis was first observed) mice were randomly assigned to different treatment groups and given 3,4-DAA (100 mg/kg/day, 200 mg/kg/day or 400 mg/kg/day) or vehicle alone over a 10 day period. […] Significant differences between 3,4-DAA treated and control mice were observed from day 3 until the end of the treatment period (day 10). On day 10 the mice were killed and the first paw to show clinical evidence of arthritis was processed for histology. Joints were examined ‘blindly’ for severity of inflammation and joint erosion.
Therefore, it is clearly of interest to establish what happens in vivo when treatment with 3,4-DAA is stopped. Is there a disease flare and if so, does it occur immediately after cessation of treatment? […] Treatment was then stopped and mice were monitored for a further 7 days.

purified B cells = assay: B cell proliferation in vitro (anti-CD40, 3H-thymidine incorporation); type: cell-based; settings: anti-CD40 stimulation, 72 h; for IC50: B-cell, read-out: IC50 for inhibition of B cell proliferation; for B cell proliferation: varying doses
Protocol: as §1, §2, §3

[1] = established CIA, 100, 200 or 400 mg/kg/day over 10 days
[2] = up to 10 days therapy, 3,4-DAA 200 mg/kg/day, dexamethasone 0.5 mg/kg/2 days

SMILES | IFN-γ production by T-cells (T-cells) | IL-5 production by T-cells (T-cells) | IL-10 production by T-cells (T-cells) | action on inflammation in CIA (established CIA; administered therapeutically at doses of up to 400 mg/kg/day) | IC50 (purified B cells) [µM] | B cell proliferation (purified B cells) | arthritis severity during the treatment period (established CIA; 400 mg/kg/day from day 1 to day 5 of arthritis) | day of arthritis on which exacerbation/relapse was observed after treatment stopped on day 5 (established CIA; 400 mg/kg/day from days 1 to 5, monitored up to day 12) [days] | clinical scores (established CIA; [1]) | paw-swelling (established CIA; [1]) | histological severity of arthritis (established CIA; established CIA, 100, 200 or 400 mg/kg/day, day 10) | clinical score (established CIA; [2]) | paw swelling (established CIA; [2])
Nc1c(O)cccc1C(=O)O [3-Hydroxyanthranilic acid] | dose-dependently reduced | increased | increased | no action | 65 | dose-dependently inhibited | – | – | – | – | – | – | –
COc1ccc(/C=C/C(=O)Nc2ccccc2C(=O)O)cc1OC [Tranilast, 2-[[3-(3,4-dimethoxyphenyl)-1-oxo-2-propenyl]amino]benzoic acid] | dose-dependently reduced | dose-dependently inhibited | dose-dependently inhibited | – | 73 | dose-dependently inhibited | dramatic reduction | 9 | dose-dependent reduction | dose-dependent reduction | dose-dependent reduction | significantly reduced | significantly reduced
